# Assay results taken from ChEMBL document CHEMBL5223109, “The discovery of BMS-737 as a potent, CYP17 lyase-selective inhibitor for the treatment of castration-resistant prostate cancer” (Bioorg Med Chem Lett, 2022).
# Experiments:
# [1] = target: T1, Steroid 17-alpha-hydroxylase/17,20 lyase (Homo sapiens, UniProt P05093); test: Inhibition of human CYP17A1; type: ADME
# T1 sequence (P05093 whole entry): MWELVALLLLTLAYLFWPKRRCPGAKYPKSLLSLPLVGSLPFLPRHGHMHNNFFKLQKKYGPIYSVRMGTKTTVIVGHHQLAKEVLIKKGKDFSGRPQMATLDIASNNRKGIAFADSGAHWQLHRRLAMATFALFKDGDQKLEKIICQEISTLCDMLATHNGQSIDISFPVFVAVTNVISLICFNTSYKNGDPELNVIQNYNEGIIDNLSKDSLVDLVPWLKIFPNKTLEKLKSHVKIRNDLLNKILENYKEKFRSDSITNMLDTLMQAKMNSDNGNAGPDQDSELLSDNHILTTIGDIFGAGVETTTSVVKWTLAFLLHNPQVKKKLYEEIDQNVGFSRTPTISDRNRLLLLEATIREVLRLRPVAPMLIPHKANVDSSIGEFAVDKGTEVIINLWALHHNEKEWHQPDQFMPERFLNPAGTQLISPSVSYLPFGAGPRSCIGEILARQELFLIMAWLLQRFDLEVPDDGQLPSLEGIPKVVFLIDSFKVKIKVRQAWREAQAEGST
# [2] = Metabolic stability in human liver microsomes assessed as parent compound remaining relative to control; type: ADME, Microsome
# [3] = Metabolic stability in mouse liver microsomes assessed as parent compound remaining; type: ADME, Microsome
# [4] = target: T1, Steroid 17-alpha-hydroxylase/17,20 lyase; test: Selectivity ratio for inhibition of human CYP17A1 hydroxylase activity to inhibition of human CYP17A1 lyase activity; type: ADME
# [5] = target: T1, Steroid 17-alpha-hydroxylase/17,20 lyase; test: Inhibition of human CYP17A1 lyase activity; type: ADME
# [6] = target: T1, Steroid 17-alpha-hydroxylase/17,20 lyase; test: Inhibition of human CYP17A1 hydroxylase activity; type: ADME
# [7] = target: T2, Steroid 17-alpha-hydroxylase/17,20 lyase (Macaca fascicularis, UniProt Q2XVA1); test: Inhibition of cynomolgus monkey CYP17A1 hydroxylase activity; type: ADME
# T2 sequence (Q2XVA1 whole entry): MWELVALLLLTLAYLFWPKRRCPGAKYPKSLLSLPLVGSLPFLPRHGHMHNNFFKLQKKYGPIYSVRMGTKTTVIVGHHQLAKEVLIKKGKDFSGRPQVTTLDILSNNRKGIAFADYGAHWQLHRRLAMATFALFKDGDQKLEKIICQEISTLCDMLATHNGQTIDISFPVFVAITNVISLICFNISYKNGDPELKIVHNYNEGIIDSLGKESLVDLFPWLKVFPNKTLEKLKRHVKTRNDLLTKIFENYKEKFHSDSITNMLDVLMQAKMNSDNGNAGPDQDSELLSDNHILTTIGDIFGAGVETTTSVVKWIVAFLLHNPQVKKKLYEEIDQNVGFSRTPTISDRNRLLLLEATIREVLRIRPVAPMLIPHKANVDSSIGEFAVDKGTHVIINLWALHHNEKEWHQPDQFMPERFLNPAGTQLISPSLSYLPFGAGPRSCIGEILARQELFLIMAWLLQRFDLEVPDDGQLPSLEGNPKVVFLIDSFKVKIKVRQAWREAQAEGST
# [8] = target: T3, Cytochrome P450 11B1, mitochondrial (Homo sapiens, UniProt P15538); test: Inhibition of human CYP11B1; type: ADME
# T3 sequence (P15538 whole entry): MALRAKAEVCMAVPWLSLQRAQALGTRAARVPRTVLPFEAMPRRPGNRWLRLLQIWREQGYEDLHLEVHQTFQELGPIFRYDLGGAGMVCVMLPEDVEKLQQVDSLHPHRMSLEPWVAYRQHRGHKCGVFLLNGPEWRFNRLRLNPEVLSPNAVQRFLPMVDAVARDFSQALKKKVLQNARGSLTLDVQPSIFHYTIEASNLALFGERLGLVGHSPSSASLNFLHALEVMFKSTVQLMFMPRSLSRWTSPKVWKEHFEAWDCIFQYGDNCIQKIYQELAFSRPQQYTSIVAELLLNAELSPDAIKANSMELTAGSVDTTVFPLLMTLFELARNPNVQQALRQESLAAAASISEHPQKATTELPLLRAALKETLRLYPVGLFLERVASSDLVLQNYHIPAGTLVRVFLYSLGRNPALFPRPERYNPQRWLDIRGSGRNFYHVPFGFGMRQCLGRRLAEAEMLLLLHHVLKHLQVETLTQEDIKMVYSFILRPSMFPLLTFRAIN
# [9] = Metabolic stability in rat liver microsome assessed as half-life; type: ADME; conditions: liver microsomes
# [10] = Metabolic stability in mouse liver microsome assessed as half-life; type: ADME; conditions: liver microsomes
# [11] = Metabolic stability in dog liver microsome assessed as half-life; type: ADME, Canis lupus familiaris; conditions: liver microsomes
# [12] = Metabolic stability in cynomolgus monkey liver microsome assessed as half-life; type: ADME, Macaca fascicularis; conditions: liver microsomes
# [13] = Metabolic stability in dog liver microsomes assessed as parent compound remaining relative to control; type: ADME, Canis lupus familiaris, Microsome
# Cytochrome P450 2C19 = Cytochrome P450 2C19 (Homo sapiens, UniProt P33261); test: Inhibition of recombinant human CYP2C19; type: ADME
# Cytochrome P450 2C19, sequence (P33261 whole entry): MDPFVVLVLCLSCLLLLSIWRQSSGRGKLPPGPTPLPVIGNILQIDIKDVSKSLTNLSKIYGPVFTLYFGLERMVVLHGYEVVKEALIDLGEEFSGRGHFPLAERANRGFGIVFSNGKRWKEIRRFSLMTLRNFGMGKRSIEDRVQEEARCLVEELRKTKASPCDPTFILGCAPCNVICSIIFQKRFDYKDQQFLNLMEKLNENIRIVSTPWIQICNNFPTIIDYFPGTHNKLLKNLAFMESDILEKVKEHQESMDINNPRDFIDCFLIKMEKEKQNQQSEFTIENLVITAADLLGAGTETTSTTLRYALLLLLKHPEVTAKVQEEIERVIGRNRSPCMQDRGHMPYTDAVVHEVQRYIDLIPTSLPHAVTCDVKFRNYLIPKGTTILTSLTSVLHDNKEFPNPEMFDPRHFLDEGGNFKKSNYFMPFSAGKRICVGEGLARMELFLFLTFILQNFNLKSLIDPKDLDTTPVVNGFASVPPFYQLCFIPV
# Cytochrome P450 2C9 = Cytochrome P450 2C9 (Homo sapiens, UniProt P11712); test: Inhibition of recombinant human CYP2C9; type: ADME
# Cytochrome P450 2C9, sequence (P11712 whole entry): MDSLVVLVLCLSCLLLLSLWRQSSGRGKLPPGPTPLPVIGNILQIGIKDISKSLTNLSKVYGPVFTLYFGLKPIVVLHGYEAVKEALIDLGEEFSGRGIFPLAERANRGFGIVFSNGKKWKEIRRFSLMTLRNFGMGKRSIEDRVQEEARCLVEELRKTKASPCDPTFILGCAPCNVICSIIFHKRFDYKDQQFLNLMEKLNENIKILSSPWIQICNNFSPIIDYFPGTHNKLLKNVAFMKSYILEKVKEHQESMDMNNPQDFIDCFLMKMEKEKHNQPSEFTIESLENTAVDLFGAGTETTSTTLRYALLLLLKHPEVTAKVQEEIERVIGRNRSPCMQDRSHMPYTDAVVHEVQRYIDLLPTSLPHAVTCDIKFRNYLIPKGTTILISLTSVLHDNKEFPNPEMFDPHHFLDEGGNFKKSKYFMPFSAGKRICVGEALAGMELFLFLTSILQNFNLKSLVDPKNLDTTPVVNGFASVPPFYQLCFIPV
# [14] = AUC in cynomolgus monkey at 1 mg/kg, po; type: ADME, organism-based, Macaca fascicularis; parameters: dose 1 mg/kg, route po; conditions: in vivo
# [15] = Volume of distribution at steady state in cynomolgus monkey at 1 mg/kg, iv; type: ADME, organism-based, Macaca fascicularis; conditions: in vivo, read-out: Vdss
# [16] = Oral bioavailability in cynomolgus monkey at 1 mg/kg; type: ADME, organism-based, Macaca fascicularis; conditions: in vivo
# Cytochrome P450 3A4 = Cytochrome P450 3A4 (Homo sapiens, UniProt P08684); test: Induction of recombinant human CYP3A4; type: ADME; conditions: recombinant enzyme
# Cytochrome P450 3A4, sequence (P08684 whole entry): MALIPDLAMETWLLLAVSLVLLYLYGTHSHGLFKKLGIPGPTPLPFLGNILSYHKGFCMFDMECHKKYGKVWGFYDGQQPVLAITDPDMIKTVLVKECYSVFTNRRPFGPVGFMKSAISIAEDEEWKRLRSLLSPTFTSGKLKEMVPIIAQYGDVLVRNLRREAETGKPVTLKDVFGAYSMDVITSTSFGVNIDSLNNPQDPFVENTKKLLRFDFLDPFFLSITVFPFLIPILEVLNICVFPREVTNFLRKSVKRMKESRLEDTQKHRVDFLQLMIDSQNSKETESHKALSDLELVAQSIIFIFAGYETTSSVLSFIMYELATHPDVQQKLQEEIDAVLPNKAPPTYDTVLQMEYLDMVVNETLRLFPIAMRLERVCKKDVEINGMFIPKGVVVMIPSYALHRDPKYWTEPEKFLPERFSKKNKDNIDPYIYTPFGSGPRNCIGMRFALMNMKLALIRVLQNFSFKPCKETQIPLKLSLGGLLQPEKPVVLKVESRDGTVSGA
# [17] = target: T2, Steroid 17-alpha-hydroxylase/17,20 lyase; test: Selectivity ratio of IC50 for inhibition of cynomolgus monkey CYP17A1 hydroxylase activity to IC50 for inhibition of cynomolgus monkey CYP17A1 lyase activity; type: ADME
# [18] = target: T2, Steroid 17-alpha-hydroxylase/17,20 lyase; test: In vivo inhibition of CYP17A1 in cynomolgus monkey assessed as decrease in testosterone level in blood at 1 mg/kg, po measured at 8 hrs; type: functional, organism-based
# [19] = target: T2, Steroid 17-alpha-hydroxylase/17,20 lyase; test: In vivo inhibition of CYP17A1 in cynomolgus monkey assessed as fold increase in progesterone level in blood at 1 mg/kg, po measured upto 24 hrs; type: functional, organism-based
# [20] = target: T2, Steroid 17-alpha-hydroxylase/17,20 lyase; test: In vivo inhibition of CYP17A1 in cynomolgus monkey assessed as fold increase in hydroxyprogesterone level in blood at 1 mg/kg, po measured upto 24 hrs; type: functional, organism-based
# [21] = target: T2, Steroid 17-alpha-hydroxylase/17,20 lyase; test: In vivo inhibition of CYP17A1 in cynomolgus monkey assessed as increase in progesterone level in blood at 1 mg/kg, po measured at 4 hrs; type: functional, organism-based
compound,measurement,setting,value
Nc1ncncc1-c1ccnc2c1cnn2-c1ccc(F)cc1,IC50,[1],0.016 µM
same,Stability,[2],100%
same,Stability,[3],85%
same,Ratio,[4],11
same,IC50,[5],0.008 µM
same,IC50,[6],0.091 µM
same,IC50,[7],0.03 µM
same,IC50,[8],2.61 µM
same,half-life,[9],72 min
same,half-life,[10],35 min
same,half-life,[11],46 min
same,half-life,[12],> 120 min
same,Stability,[13],86%
same,IC50,Cytochrome P450 2C19,> 40 µM
same,IC50,Cytochrome P450 2C9,> 40 µM
same,AUC,[14],26 µM·h
same,Vd,[15],3.5 L/kg
same,bioavailability,[16],100%
same,Activity,Cytochrome P450 3A4,Not Active
same,Ratio IC50,[17],5
same,Activity,[18],43 ng/dL
same,fold change (FC),[19],14
same,fold change (FC),[20],14
same,Activity,[21],27 ng/dL
